Measured values reported in patent US8952024B2, “Herbicidal pyrimidone derivatives” (E I du Pont de Nemours and Company, priority 2009, dated 2015).
Like-named read-outs stand apart in the source and are kept apart here.

Legend:
Assay type in all cases: in vivo
[1] = test system: barnyardgrass (Echinochloa crus-galli); assay: Test A pre-/postemergence plant response; settings: Echinochloa crus-galli, 240 h, read-out: Plant response rating, Barnyardgrass; for pest or weed control at 125 g/ha: 125 g ai/ha; for pest or weed control at 500 g/ha: 500 g ai/ha, approx. ten days
Summary of the method: (§1)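 Visual injury rating on a 0–100 scale (0 = no effect, 100 = complete control) was made versus untreated controls after about ten days in the greenhouse. Compounds, formulated in a non-phytotoxic solvent mix containing surfactant, were sprayed preemergence onto loam/sand soil and postemergence onto one- to two-leaf plants.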

[2] = test system: pigweed (Amaranthus retroflexus); assay: Test A pre-/postemergence plant response; settings: Amaranthus retroflexus, 240 h, read-out: Plant response rating, Pigweed; for pest or weed control at 125 g/ha: 125 g ai/ha; for pest or weed control at 500 g/ha: 500 g ai/ha, approx. ten days
Summary of the method: as §1

[3] = test system: Italian ryegrass (Lolium multiflorum); assay: Test B pre-/postemergence plant response; settings: for pest or weed control at 125 g/ha: 125 g ai/ha
Summary of the method: (§2)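 Test compounds, formulated in a non-phytotoxic solvent mixture with surfactant, are applied to the soil surface (loam and sand blend) right after seeding, or sprayed over plants at the 1- to 4-leaf stage grown in peat moss/vermiculite medium. After 13 to 15 days under glasshouse conditions, each species is scored visually from 0 (no effect) to 100 (complete control) against controls.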

[4] = test system: Surinam grass (Brachiaria decumbens); assay: Test B pre-/postemergence plant response; settings: for pest or weed control at 125 g/ha: 125 g ai/ha
Summary of the method: as §2

[5] = test system: blackgrass (Alopecurus myosuroides); assay: Test B pre-/postemergence plant response; settings: for pest or weed control at 31 g/ha: 31 g ai/ha; for pest or weed control at 125 g/ha: 125 g ai/ha
Summary of the method: as §2

[6] = test system: downy bromegrass (Bromus tectorum); assay: Test B pre-/postemergence plant response; settings: for pest or weed control at 31 g/ha: 31 g ai/ha; for pest or weed control at 125 g/ha: 125 g ai/ha
Summary of the method: as §2

[7] = test system: goosegrass (Eleusine indica); assay: Test B pre-/postemergence plant response; settings: for pest or weed control at 31 g/ha: 31 g ai/ha
Summary of the method: as §2

[8] = post-emergence, Postemergence, 0 to 100 scale where 0 is no effect and 100 is complete control
[9] = post-emergence, Postemergence, 0 to 100 scale, 0 = no effect, 100 = complete control
[10] = pre-emergence, Preemergence, 0 to 100 scale, 0 = no effect, 100 = complete control
[11] = pre-emergence, Preemergence, visual injury, 0 to 100 scale (0 no effect, 100 complete control)
[12] = 62 g ai/ha, postemergence, 0 is no effect, 100 is complete control, 13 to 15 days
[13] = Preemergence, 250 g ai/ha, 0 to 100 scale

## O=C1CCCC(O)=C1C(=O)c1cnc(-c2cccnc2)n(-c2ccccc2)c1=O [Compound 113, 5-[(2-hydroxy-6-oxo-1-cyclohexen-1-yl)carbonyl]-3-phenyl-2-(3-pyridinyl)-4(3H)-pyrimidone]
[1]; [8]
  pest or weed control at 125 g/ha: 70%
[1]; [9]
  pest or weed control at 500 g/ha: 90%
[1]; [10]
  pest or weed control at 125 g/ha: 10%
[1]; [11]
  pest or weed control at 500 g/ha: 90%
[2]; [8]
  pest or weed control at 125 g/ha: 100%
[2]; [9]
  pest or weed control at 500 g/ha: 100%
[2]; [10]
  pest or weed control at 125 g/ha: 100%
[2]; [11]
  pest or weed control at 500 g/ha: 100%
[3]; [12]
  Ryegrass, Italian plant response rating (0 to 100 scale): 45
[3]; Lolium multiflorum, post-emergence, Postemergence, scale 0 to 100 (0 no effect, 100 complete control), read-out: Plant response rating, Ryegrass, Italian
  pest or weed control at 125 g/ha: 50%
[3]; Lolium multiflorum, post-emergence, Postemergence, 250 g ai/ha, scale 0 to 100 (0 no effect, 100 complete control), read-out: Plant response rating, Ryegrass, Italian
  pest or weed control at 250 g/ha: 85%
[3]; Lolium multiflorum, pre-emergence, Preemergence, 31 g ai/ha, scale 0 to 100 (0 no effect, 100 complete control), read-out: Plant response rating, Ryegrass, Italian
  pest or weed control at 31 g/ha: 0%
[3]; Lolium multiflorum, pre-emergence, Preemergence, 62 g ai/ha, scale 0 to 100 (0 no effect, 100 complete control), read-out: Plant response rating, Ryegrass, Italian
  pest or weed control at 62 g/ha: 5%
[3]; Lolium multiflorum, pre-emergence, Preemergence, scale 0 to 100, 0 no effect, 100 complete control, read-out: Plant response rating, Ryegrass, Italian
  pest or weed control at 125 g/ha: 5%
[3]; [13]
  Ryegrass, Italian plant response rating: 40
[4]; [12]
  Surinam Grass plant response rating (0 to 100 scale): 85
[4]; [13]
  Surinam Grass plant response rating: 98
[4]; Urochloa decumbens, post-emergence, Postemergence, scale 0 to 100 (0 no effect, 100 complete control), read-out: Plant response rating, Surinam Grass
  pest or weed control at 125 g/ha: 90%
[4]; Urochloa decumbens, post-emergence, Postemergence, 250 g ai/ha, scale 0 to 100 (0 no effect, 100 complete control), read-out: Plant response rating, Surinam Grass
  pest or weed control at 250 g/ha: 90%
[4]; Urochloa decumbens, pre-emergence, Preemergence, 31 g ai/ha, scale 0 to 100 (0 no effect, 100 complete control), read-out: Plant response rating, Surinam Grass
  pest or weed control at 31 g/ha: 0%
[4]; Urochloa decumbens, pre-emergence, Preemergence, 62 g ai/ha, scale 0 to 100 (0 no effect, 100 complete control), read-out: Plant response rating, Surinam Grass
  pest or weed control at 62 g/ha: 80%
[4]; Urochloa decumbens, pre-emergence, Preemergence, scale 0 to 100, 0 no effect, 100 complete control, read-out: Plant response rating, Surinam Grass
  pest or weed control at 125 g/ha: 95%
[5]; [12]
  Blackgrass plant response rating (0 to 100 scale): 0
[5]; Alopecurus myosuroides, post-emergence, 360 h, postemergence, scale 0 to 100, 0 is no effect, 100 is complete control, read-out: Plant response rating, Blackgrass
  pest or weed control at 31 g/ha: 0%
[5]; Alopecurus myosuroides, post-emergence, 360 h, Postemergence, scale 0 to 100 (0 no effect, 100 complete control), read-out: Plant response rating, Blackgrass
  pest or weed control at 125 g/ha: 5%
[5]; Alopecurus myosuroides, post-emergence, 360 h, Postemergence, 250 g ai/ha, scale 0 to 100 (0 no effect, 100 complete control), read-out: Plant response rating, Blackgrass
  pest or weed control at 250 g/ha: 5%
[5]; Alopecurus myosuroides, pre-emergence, 360 h, Preemergence, scale 0 to 100 (0 no effect, 100 complete control), read-out: Plant response rating, Blackgrass
  pest or weed control at 31 g/ha: 0%
[5]; Alopecurus myosuroides, pre-emergence, 360 h, Preemergence, 62 g ai/ha, scale 0 to 100, 0 no effect, 100 complete control, read-out: Plant response rating, Blackgrass
  pest or weed control at 62 g/ha: 0%
[5]; Alopecurus myosuroides, pre-emergence, 360 h, Preemergence, scale 0 to 100, 0 no effect, 100 complete control, read-out: Plant response rating, Blackgrass
  pest or weed control at 125 g/ha: 0%
[5]; [13]
  Blackgrass plant response rating: 20
[6]; [12]
  Bromegrass, Downy plant response rating (0 to 100 scale): 60
[6]; Bromus tectorum, post-emergence, postemergence, scale 0 to 100, 0 is no effect, 100 is complete control, read-out: Plant response rating, Bromegrass, Downy
  pest or weed control at 31 g/ha: 5%
[6]; Bromus tectorum, post-emergence, Postemergence, scale 0 to 100 (0 no effect, 100 complete control), read-out: Plant response rating, Bromegrass, Downy
  pest or weed control at 125 g/ha: 80%
[6]; Bromus tectorum, post-emergence, Postemergence, 250 g ai/ha, scale 0 to 100 (0 no effect, 100 complete control), read-out: Plant response rating, Bromegrass, Downy
  pest or weed control at 250 g/ha: 90%
[6]; Bromus tectorum, pre-emergence, Preemergence, scale 0 to 100 (0 no effect, 100 complete control), read-out: Plant response rating, Bromegrass, Downy
  pest or weed control at 31 g/ha: 0%
[6]; Bromus tectorum, pre-emergence, Preemergence, 62 g ai/ha, scale 0 to 100, 0 no effect, 100 complete control, read-out: Plant response rating, Bromegrass, Downy
  pest or weed control at 62 g/ha: 10%
[6]; Bromus tectorum, pre-emergence, Preemergence, scale 0 to 100, 0 no effect, 100 complete control, read-out: Plant response rating, Bromegrass, Downy
  pest or weed control at 125 g/ha: 10%
[6]; [13]
  Bromegrass, Downy plant response rating: 10
[7]; [12]
  Goosegrass plant response rating (0 to 100 scale): 75
[7]; Eleusine indica, post-emergence, postemergence, scale 0 to 100, 0 is no effect, 100 is complete control, read-out: Plant response rating, Goosegrass
  pest or weed control at 31 g/ha: 70%
[7]; Eleusine indica, post-emergence, Postemergence, 125 g ai/ha, scale 0 to 100 (0 no effect, 100 complete control), read-out: Plant response rating, Goosegrass
  pest or weed control at 125 g/ha: 85%
[7]; Eleusine indica, post-emergence, Postemergence, 250 g ai/ha, scale 0 to 100 (0 no effect, 100 complete control), read-out: Plant response rating, Goosegrass
  pest or weed control at 250 g/ha: 90%
[7]; Eleusine indica, pre-emergence, Preemergence, scale 0 to 100 (0 no effect, 100 complete control), read-out: Plant response rating, Goosegrass
  pest or weed control at 31 g/ha: 75%
